Laboratory results from US12715850B2, “Low toxicity NMP substitutes and uses thereof” (Advancion Corporation, priority 2020, dated 2026).

What was measured:
[1] = Solubility of the product in water and mineral oil; assay type: physicochemical
Protocol: The resulting nitro amidef was added to a 2 L Parr reactor along with 300 g methanol and 30 g of damp Raney® nickel. The reactor was purged with hydrogen. The reagents were stirred and reacted at 65° C. and 750 psig hydrogen. In a separate vessel, a blend of 400 g (2.13 mol) of nitroamide (prepared in previous example) and 431 g (5.31 mol) of formaldehyde (37% aqueous, Fisher Scientific) was prepared. The nitroamide/formaldehyde mixture was added to the reactor under stirring while maintaining 65° C. Followed by flushing with 50 g (0.62 mol) of 37% aqueous formaldehyde. The reactor contents were held at 65° C. for 2 hours followed by cooling to 25° C. The reactor was vented and the catalyst filtered off the product. After rinsing the catalyst with methanol (2×20 mL), the filtrate was concentrate under vacuum. The product was isolated and purified using vacuum distillation to provide a pale yellow liquid recovered in 75% yield from DMAA having purity >99% by GC-FID. The boiling point was determined to be 170° C. at 40 mmHg, 145° C. at 15 mmHg, and 137° C. at 10 mmHg. ^1H NMR (400 MHz, D2O): d=2.95 (s, 3H), 2.88 (s, 3H), 2.24 (m, 2H), 2.05 (s, 6H), 1.54 (m, 2H), 0.91 (s, 6H).

animals [2] = settings: animals ingested NMP repeatedly at lower levels; cited from earlier work
[3] = oral reproduction toxicity study; at doses lower than those that caused maternal toxicity; cited from earlier work
animals [4] = settings: long-term oral exposures in animals; cited from earlier work
experimental animals = settings: high levels over short time by inhalation, dermal exposure, and ingestion; cited from earlier work
[5] = following inhalation, oral and dermal exposure in humans and animals; cited from earlier work

Row | solubility in mineral oil ([1]; mineral oil) | solubility in water ([1]; water) | SMILES | adverse effects (animals [2]) | developmental toxicity [3] | effects of long-term oral exposures (animals [4]) | toxicity (experimental animals) | absorption [5]
1 | soluble | soluble | CN(C)C(=O)CCC(C)(C)N(C)C [Example 3, 4-(dimethylamino)-N,N-4-trimethylpentamide] | – | – | – | – | –
2 | – | – | CN1CCCC1=O [NMP, N-methyl-2-pyrrolidone] | changes in body weight, liver weight, neurotoxicity, and thymus atrophy | decrease in fetal weight and malformations | increased incidence of large kidneys, kidneys diagnosed with chronic problems, fluid in the pleural cavity and small testes | low toxicity | well absorbed
